# Assay results published in patent US10899741B2, “3,4-bipyridyl pyrazole derivative, and preparation method therefor and medical application thereof” (Jiangsu Hengrui Medicine Co., Ltd., priority 2016, dated 2021).
# Columns and labels:
# recombinant human VEGFR2 = recombinant human VEGFR2 (Homo sapiens (Human), UniProt P35968); assay: Inhibition of VEGFR2 kinase activity (Z'-LYTE kit); format: biochemical; settings: ATP 50 μM, 25° C. 2 hours
# Description: The inhibition effect of VEGFR2 kinase activity in vitro was determined by the following method.
# The inhibition effect of the compounds of the present invention on VEGFR2 kinase activity was determined by the following experimental method:
# Z'-LYTEC® Kinase Assay Kit—Tyrosine 1 Peptide (PV3190, Invitrogen) was used to assay enzyme activity. 5 μl of recombinant human VEGFR2 enzyme (PV3660, Invitrogen) and VEGFR2 substrate polypeptide (in the reaction system, the final concentration of enzyme was 0.14 ng/μL, and the final concentration of substrate was 2 μM) formulated with reaction buffer (50 mM HEPES pH7.5, 10 mM MgCl2, 1 mM EGTA, 0.05% BRIJ-35), 2.5 μl of a 2-fold gradient dilution of the compounds dissolved in 5% DMSO, and 2.5 μL of ATP solution (the final concentration of ATP was 50 μM) were added successively to a 384-well plate (4513, Corning). After reaction at 25° C. for 2 hours, 5 μL of detection reagent was added to each well. After the plate was placed at 25° C. for 1 hour, the fluorescence signal values at emission wavelengths of 445 nm and 520 nm were measured with a NOVOstar (BMG) multi-function microplate reader. The IC50 values of the compounds for enzyme inhibition were calculated using Graphpad prism software based on each concentration of the compound and the corresponding signal value thereof.
# p38α kinase = p38α kinase (Homo sapiens (Human), UniProt Q16539); assay: Inhibition of p38α kinase activity (ADP-Glo kit); format: biochemical; settings: ATP 50 μM, 27° C. 2.5 hours
# p38α kinase, sequence (Q16539 whole entry): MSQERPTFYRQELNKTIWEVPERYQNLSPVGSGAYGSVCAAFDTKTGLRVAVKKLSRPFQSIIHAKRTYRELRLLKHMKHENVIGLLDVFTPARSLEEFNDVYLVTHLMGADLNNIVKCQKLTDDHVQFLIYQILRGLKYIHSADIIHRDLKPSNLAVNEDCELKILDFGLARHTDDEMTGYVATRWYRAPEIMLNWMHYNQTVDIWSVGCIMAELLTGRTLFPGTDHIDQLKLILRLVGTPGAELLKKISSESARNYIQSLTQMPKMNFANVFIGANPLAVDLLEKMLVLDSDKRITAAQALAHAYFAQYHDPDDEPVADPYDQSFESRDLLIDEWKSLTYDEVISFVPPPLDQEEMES
# Description: The inhibition of p38α kinase activity in vitro was determined by the following method.
# The inhibition effect of the compounds of the present invention on p38α kinase activity was determined by the following experimental method:
# p38α kinase assay kit (V9591, Promega) was used to assay enzyme activity. 2 μl of enzyme solution (the final concentration of enzyme in the reaction system was 0.5 ng/μL) formulated with reaction buffer (40 mM Tris pH 7.5, 20 mM MgCl2, 0.1 mg/ml BSA), 1 μl of a 3-fold gradient dilution of the compounds dissolved in 5% DMSO, and 2 μl of a mixed solution of ATP and p38 substrate peptide (the final concentration of ATP was 50 μM, and the final concentration of substrate was 0.2 μg/μL) were added successively to a 384-well plate (4514, Corning). After reaction at 27° C. for 2.5 hours, 5 μl of ADP-Glo solution in the kit was added to each well, then the plate was placed at 27° C. for 40 minutes. 10 μl of kinase assay reagent was then added to each well, then the plate was placed at 27° C. for 30 minutes. The chemiluminescence signal values were measured with a Victor 3 (PerkinElmer) multi-function microplate reader. The IC50 values of the compounds on enzyme inhibition were calculated using Graphpad prism software based on each concentration of the compound and the corresponding signal value thereof.
# NIH3T3 cell = assay: Inhibition of NIH3T3 cell proliferation (CellTiter-Glo); format: cell-based; settings: NIH3T3, 72 hours, 0.5% FBS; for IC50: Mus musculus
# Description: The inhibition effect of the compounds of the present invention on NIH3T3 cell proliferation was determined by the following in vitro test.
# The inhibition effect of the compounds of the present invention on NIH3T3 cell proliferation was determined by the following experimental method:
# On a 96-well white plate with transparent bottom (3903, Corning), 100 μL of NIH3T3 cell (GNM6, Cell Bank of Typical Culture Collection Committee of Chinese Academy of Sciences) was seeded in a DMEM medium containing 10% FBS (SH1-30243.01, GE) in each well. The seeding density is 2000 cells/well. The cells were incubated overnight at 37° C., in 5% CO2. After overnight incubation, each well was replaced with 90 μL of DMEM medium containing 0.5%0 FBS. 10 μl of a 3-fold gradient dilution of the compounds with DMEM medium containing 0.5% FBS was then added, and the plate was incubated for 72 hours in a cell incubator at 37° C., in 5% CO2. Finally, 50 μL of CellTiter-Glo (G7573, Promega) was added to each well. After incubation for 10 minutes at room temperature, the chemiluminescence signal values were measured with a Victor 3 microplate reader (PerkinElmer). The IC50 values of the compounds were calculated using Graphpad Prism software based on each concentration of the compound and the corresponding signal value thereof.
# [1] = system: Smad signaling pathway of TGFβRI; assay: Inhibition of Smad signaling pathway of TGFβRI (3TP-lux luciferase reporter in HepG2 cells); format: cell-based; settings: HepG2, 3TP-lux plasmid, 18 hours; for IC50: Homo sapiens
# Description: The inhibition effect of the compounds of the present invention on Smad signaling pathway of TGFβRI was determined by the following in vitro test.
# The inhibition effect of the compounds of the present invention on Smad signaling pathway of TGFβRI was determined by the following experimental method:
# On a 96-well plate, 100 μL of HepG2 cell (TCHu 72, Cell Bank of Typical Culture Collection Committee of Chinese Academy of Sciences) was seeded on an EMEM medium containing 10% FBS (42360-099, Gibco) in each well. The seeding density is 2.5×10^4 cells/well. The cells were incubated overnight at 37° C., in 5% CO2. Each well was replaced with fresh EMEM medium containing 10% FBS. 0.1 μg of 3TP-lux plasmid (11767, Biovector Science Lab, Inc.) was transfected in each well. The cells were further incubated for 24 hours at 37° C., in 5% CO2. Each well was replaced with 90 μL of EMEM medium containing 0.5% FBS, then the cells were starved for 6 hours. The compounds were formulated as a 20 mM stock solution, which was diluted in gradient to a 400× concentration with 100% DMSO, and further 40-fold diluted with EMEM containing 0.5% FBS. The cell culture plate was taken out, then 10 μl of diluted compound or control (0.25% DMSO) was added to each well respectively. The plate was shaken gently, then incubated for 18 hours in an incubator at 37° C., in 5% CO2. Finally, 100 μl of detection reagent ONE-Glo™ Luciferase Assay (E6110, Promega) was added to each well, and the plate was placed in dark at room temperature for 10 minutes. The chemiluminescence signal values were measured with a Victor 3.0 (PerkinElmer). The IC50 values of the compounds were calculated using Graphpad Prism software based on each concentration of the compound and the corresponding signal value thereof.
# recombinant human VEGFR2, sequence (P35968 20-1356): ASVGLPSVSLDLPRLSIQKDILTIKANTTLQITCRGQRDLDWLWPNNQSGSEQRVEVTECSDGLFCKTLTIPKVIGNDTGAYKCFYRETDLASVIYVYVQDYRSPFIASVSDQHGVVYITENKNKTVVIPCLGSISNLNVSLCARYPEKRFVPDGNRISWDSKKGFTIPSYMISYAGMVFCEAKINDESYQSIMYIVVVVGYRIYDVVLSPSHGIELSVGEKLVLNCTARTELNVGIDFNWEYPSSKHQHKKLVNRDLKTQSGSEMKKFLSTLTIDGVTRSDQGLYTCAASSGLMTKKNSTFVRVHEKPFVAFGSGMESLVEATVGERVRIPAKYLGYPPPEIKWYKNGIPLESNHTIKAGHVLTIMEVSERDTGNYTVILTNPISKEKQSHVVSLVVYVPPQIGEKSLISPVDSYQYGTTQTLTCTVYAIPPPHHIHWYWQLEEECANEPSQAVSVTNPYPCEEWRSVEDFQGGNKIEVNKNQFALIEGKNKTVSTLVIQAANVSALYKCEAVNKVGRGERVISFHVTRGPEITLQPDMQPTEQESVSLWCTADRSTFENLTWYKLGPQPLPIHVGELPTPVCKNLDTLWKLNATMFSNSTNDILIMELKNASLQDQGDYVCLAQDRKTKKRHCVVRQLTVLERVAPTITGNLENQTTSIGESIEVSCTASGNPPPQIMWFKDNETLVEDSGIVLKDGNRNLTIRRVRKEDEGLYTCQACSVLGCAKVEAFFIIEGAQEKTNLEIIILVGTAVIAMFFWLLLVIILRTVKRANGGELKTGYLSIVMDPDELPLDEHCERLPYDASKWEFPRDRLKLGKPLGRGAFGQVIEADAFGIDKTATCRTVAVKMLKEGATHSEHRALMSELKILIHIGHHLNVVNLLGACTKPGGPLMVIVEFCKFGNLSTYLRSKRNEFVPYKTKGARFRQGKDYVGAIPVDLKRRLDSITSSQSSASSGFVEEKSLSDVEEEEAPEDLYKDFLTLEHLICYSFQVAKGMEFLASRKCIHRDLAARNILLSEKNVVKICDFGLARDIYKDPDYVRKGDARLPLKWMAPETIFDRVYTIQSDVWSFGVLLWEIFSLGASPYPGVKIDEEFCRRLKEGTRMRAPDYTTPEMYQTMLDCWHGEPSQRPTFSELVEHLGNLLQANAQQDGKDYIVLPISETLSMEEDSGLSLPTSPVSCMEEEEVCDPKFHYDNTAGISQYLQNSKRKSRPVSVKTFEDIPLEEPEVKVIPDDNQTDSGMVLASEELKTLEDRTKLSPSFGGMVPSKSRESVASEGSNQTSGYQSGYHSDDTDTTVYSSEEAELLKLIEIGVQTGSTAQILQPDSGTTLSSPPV
SMILES,IC50 (recombinant human VEGFR2),IC50 (p38α kinase),IC50 (NIH3T3 cell),Maximum inhibition rate (%) (NIH3T3 cell),Maximum inhibition rate (%) [1],IC50 [1]
"Cc1cccc(-c2nn(C3CC3)cc2-c2ccnc(-c3ccc(S(C)(=O)=O)cc3)c2)n1 [Example 2, 4-(1-Cyclopropyl-3-(6-methylpyridin-2-yl)-1H-pyrazol-4-yl)-2-(4-(methylsulfonyl)phenyl)pyridine]",4.2 µM,1 µM,0.194 µM,107%,100%,0.174 µM
"Cc1cccc(-c2nn(C3CCC3)cc2-c2ccnc(-c3ccc(S(C)(=O)=O)cc3)c2)n1 [Example 1, 4-(1-Cyclobutyl-3-(6-methylpyridin-2-yl)-1H-pyrazol-4-yl)-2-(4-(methylsulfonyl)phenyl)pyridine]",2.5 µM,2.2 µM,0.088 µM,105%,101%,0.077 µM
